For the assay, the system named is NCI-H295R. The assay can be described thus: IC50 (antiproliferative, ATP content). The conditions noted are these: 48 h. The essentials:
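Adrenocortical carcinoma cells in 1536-well plates (1500 per well, serum-free DMEM plus ITS, overnight culture) were exposed for 48 h at 37 °C, 5% CO2 to pin-transferred compounds at 8 final concentrations ranging 0.6 nM to 46 µM. ATP content was then read as CellTiter-Glo luminescence and normalised to vehicle and positive-control wells. The IC50 came from logistic curve fits, and any compound lacking a concentration response was recorded as above the top dose.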
Regarding `COc1cc(N)c(Cl)cc1C(=O)NC1CCN(Cc2ccccc2)CC1.O=C(O)/C=C\C(=O)O`, the IC50 (usually the midpoint of a concentration-inhibition curve) is above 46 µM.

On to `C[C@@H](Cc1ccccc1)NCCC(c1ccccc1)c1ccccc1.C[C@H](O)C(=O)O`, for which the IC50 was above 46 µM.

The compound `O=[C@@](N\C(C([O-])=O)=C/CCCCSC[C@H](N)C(O)=O)[C@@H](C1)C1(C)C.[Na+]` gave an IC50 above 46 µM.

Regarding `COc1ccc(C[C@@H](C)NC[C@H](O)c2ccc(O)c(NC=O)c2)cc1.COc1ccc(C[C@@H](C)NC[C@H](O)c2ccc(O)c(NC=O)c2)cc1.O=C(O)/C=C/C(=O)O`, the IC50 is above 46 µM.

In the case of `CCOC(=O)/C=C(C)/C=C/C[C@@H](C)CCCC(C)C`, the IC50 is above 46 µM.

With `Cc1[nH]c(=O)c(C#N)cc1-c1ccc2nccn2c1.Cl`, the IC50 is above 46 µM.

Compound `O=C1C[N+]([O-])=C(c2ccccc2)c2cc(Cl)ccc2N1` displayed an IC50 above 46 µM.

`[Na+].C/C(C)=C\Cc1cc(ccc1O)C(=O)N\C3=C(/[O-])c4ccc(O[C@@H]2OC(C)(C)[C@H](OC)[C@@H](OC(N)=O)[C@H]2O)c(C)c4OC3=O` had an IC50 above 46 µM.

The compound `O=[C@](CO)[C@](CC2)(O)[C@](CC1)(C)[C@]2([H])[C@@](CC4)([H])[C@@]1([H])[C@](CC3)(C)C4=CC3=O` gave an IC50 above 46 µM.

Consider `CCCOc1cc(N)ccc1C(=O)OCCN(CC)CC.Cl`, for which the IC50 was above 46 µM.

In turn, `Nc1nc(N)c(-c2ccccc2)s1` yielded an IC50 above 46 µM.

Turning to `O=C(Nc1ccc(Cl)c(Cl)c1)C1CC1`, the IC50 is above 46 µM.

`Cc1oncc1C(=O)Nc1ccc(C(F)(F)F)cc1` returned an IC50 above 46 µM.

On to `NCCC(O)(P(=O)(O)O)P(=O)(O)O`, for which the IC50 is above 46 µM.

As for `Cc1c(N(C)CS(=O)(=O)[O-])c(=O)n(-c2ccccc2)n1C.[Na+]`, the half-inhibitory concentration (IC50) was above 46 µM.

On to `C=CCN1CC[C@]23c4c5ccc(O)c4O[C@H]2[C@@H](O)C=C[C@H]3[C@H]1C5.Cl`, for which the IC50 is above 46 µM.

As to `O[C@@H]1CO[C@H]2[C@@H]1OC[C@@H]2O`, the IC50 was above 46 µM.

`CC(C)(C)NCC(O)COc1cccc2c1C[C@H](O)[C@H](O)C2` (stereo partly specified) gave an IC50 above 46 µM.

As for `CCCCN1CCCC1C(=O)Nc1c(C)cc(C)cc1C` (stereo unspecified), the IC50 is above 46 µM.

`CC(=O)OCC1=C(C(=O)[O-])N2C(=O)[C@@H](NC(=O)CSc3ccncc3)[C@H]2SC1.[Na+]` showed an IC50 above 46 µM.

Regarding `CCCN(CCC)C(=O)C(CCC(=O)O)NC(=O)c1ccccc1` (stereo unspecified), the IC50 was above 46 µM.

Regarding `CC[C@H]1OC(=O)[C@H](C)[C@@H](O[C@H]2C[C@@](C)(OC)[C@@H](O)[C@H](C)O2)[C@H](C)[C@@H](O[C@@H]2O[C@H](C)C[C@H](N(C)C)[C@H]2O)[C@](C)(O)C[C@@H](C)C(=O)[C@H](C)[C@@H](O)[C@]1(C)O`, the IC50 was above 46 µM.

In turn, `NS(=O)(=O)c1cc(-c2nnn[nH]2)c(NCc2cccs2)cc1Cl` came in with an IC50 above 46 µM.

As for `CC(=O)OCC1=C(C(=O)O)N2C(=O)[C@@H](N)[C@H]2SC1`, the half-inhibitory concentration (IC50) was above 46 µM.

Turning to `CC1=C(/C=C/C(C)=C/C=C/C(C)=C/C(=O)O)C(C)(C)CCC1`, the IC50 was above 46 µM.

As to `CNC(=NC#N)NCCSCc1nc[nH]c1C`, the IC50 is above 46 µM.

Turning to `C[C@H](CCC(=O)O)[C@H]1CC[C@H]2[C@@H]3[C@H](O)C[C@@H]4C[C@H](O)CC[C@]4(C)[C@H]3CC[C@]12C`, the IC50 is above 46 µM.

On to `Cc1cc(O)cc(C)c1Cl`, for which the IC50 is above 46 µM.

`CC(C)(C)C(=O)C(Oc1ccc(Cl)cc1)n1ccnc1` (stereo unspecified) showed an IC50 above 46 µM.

`CCOC(CN1CCN(CC(C)C(=O)c2ccccc2)CC1)c1ccccc1.Cl.Cl` (stereo unspecified) displayed an IC50 above 46 µM.

On to `O=C(NC(=O)c1c(F)cccc1F)Nc1cc(Cl)c(OC(F)(F)C(F)C(F)(F)F)cc1Cl` (stereo unspecified), for which the IC50 was above 46 µM.

In turn, `CCC(C(=O)OCCOCCN(CC)CC)c1ccccc1.O=C(O)CC(O)(CC(=O)O)C(=O)O` (stereo unspecified) gave an IC50 above 46 µM.

In turn, `CCOC(=O)OC(C)OC(=O)[C@@H]1N2C(=O)[C@@H](NC(=O)[C@H](N)c3ccccc3)[C@H]2SC1(C)C.Cl` (stereo partly specified) registered an IC50 above 46 µM.

As to `CCCCCCCCCCCCCCCCN`, the IC50 is above 46 µM.

`CC(O)C(=O)O` (stereo unspecified) had a half-maximal inhibitory concentration (IC50) above 46 µM.

As to `CCCCNC(=N)NC(=N)N`, the IC50 was above 46 µM.

Consider `Nc1ccc(S(=O)(=O)Nc2nccs2)cc1`, for which the IC50 is above 46 µM.

Turning to `CC(=O)Nc1cccc(O)c1`, the half-inhibitory concentration (IC50) was above 46 µM.

Take `O=C(O)/C=C\C(=O)O.c1ccc2nc(N3CCNCC3)ccc2c1`: the concentration for half-maximal inhibition (IC50) is above 46 µM.

`N=C(N)NN=Cc1c(Cl)cccc1Cl` returned an IC50 above 46 µM.

As to `COc1nccnc1NS(=O)(=O)c1ccc(N)cc1`, the IC50 was above 46 µM.

As to `O=C(CCCCCCCCCCCCC1CCCC1)Nc1ccc(S(=O)(=O)c2ccc(NC(=O)CCCCCCCCCCCCC3CCCC3)cc2)cc1`, the IC50 was above 46 µM.

Regarding `CCN1CCCC(OC(=O)C(c2ccccc2)c2ccccc2)C1.Cl` (stereo unspecified), the IC50 was above 46 µM.

`NC(=O)c1cc[n+](CC2=C(C(=O)[O-])N3C(=O)[C@@H](NC(=O)Cc4cccs4)[C@H]3SC2)cc1` registered an IC50 above 46 µM.

Take `CN1CCCCC1CCN1c2ccccc2Sc2ccc(S(C)=O)cc21` (stereo unspecified): the IC50 is above 46 µM.

The compound `O=S(C1=CC=CC2=C1NC[C@H](C)C2)(N[C@@H](CCCNC(N)=N)C(N3[C@@H]([C@](O)=O)C[C@H](C)CC3)=O)=O` came in with an IC50 above 46 µM.

In turn, `C[C@]12CC[C@H]3[C@@H](CCC4=C(Cl)C(=O)CC[C@@]43C)[C@@H]1CC[C@@H]2O` had an IC50 above 46 µM.

On to `O=[N+]([O-])O[C@@H]1CO[C@H]2[C@@H]1OC[C@@H]2O`, for which the IC50 was above 46 µM.

The compound `C[Se]CC[C@H](N)C(=O)O` displayed an IC50 above 46 µM.

As for `CC(C)(C)NCC(O)c1cc(Cl)c(N)c(Cl)c1` (stereo unspecified), the 50% inhibitory concentration (IC50) is above 46 µM.

The compound `CN(C)CCOc1ccccc1Cc1ccccc1.O=C(O)CC(O)(CC(=O)O)C(=O)O` gave an IC50 above 46 µM.

The compound `COc1cc(NC(C)CCCN)c2ncccc2c1.O=P(O)(O)O.O=P(O)(O)O` (stereo unspecified) came in with an IC50 above 46 µM.

On to `O=C(CCN1CCN(CCO)CC1)N1c2ccccc2Sc2ccc(C(F)(F)F)cc21`, for which the IC50 is above 46 µM.

As for `Cc1nc2n(c(=O)c1CCN1CCC(c3noc4cc(F)ccc34)CC1)CCCC2`, the IC50 was above 46 µM.

In the case of `O=C1C2CC3CC1CC(O)(C3)C2`, the IC50 was above 46 µM.

Take `NC(=O)c1ncn([C@@H]2O[C@H](CO)[C@@H](O)[C@H]2O)n1`: the IC50 is above 46 µM.

Take `N21/C(=C(/SCCNC=N)C[C@@H]1[C@H](C2=O)[C@H](O)C)C(=O)O`: the IC50 was above 46 µM.

In turn, `CCN(CC)C(=S)[S-].[Na+]` yielded an IC50 above 46 µM.

Compound `IC(I)I` registered an IC50 above 46 µM.

On to `O=C1c2ccccc2C(=O)c2ccccc21`, for which the IC50 was above 46 µM.

As to `Cc1c(C(N)=O)cc([N+](=O)[O-])cc1[N+](=O)[O-]`, the IC50 was above 46 µM.

The compound `C#CCOc1ccc2c(C)cc(=O)oc2c1` gave an IC50 above 46 µM.

In turn, `O=C([C@@H]([C@]4=CC=CC=C4)CO)O[C@@H]2C[C@@H]3[C@H]1O[C@H]1[C@@H]([N@+](C)3C)C2` displayed an IC50 above 46 µM.

For the compound `Cc1cccc(C)c1OCC(C)N.Cl` (stereo unspecified), the IC50 was above 46 µM.

As for `Cc1cc(=O)[nH]c(=S)[nH]1`, the IC50 was above 46 µM.

For `C[Si](C)(C)O[Si](C)(C)C`, the IC50 was above 46 µM.

The compound `CCCCCCCC/C=C\CCCCCCCCN` gave an IC50 above 46 µM.

Consider `Cl.OC(CCN1CCCCC1)(c1ccccc1)C1CCCCC1` (stereo unspecified), for which the IC50 is above 46 µM.

In the case of `CNCCCC12CCC(c3ccccc31)c1ccccc12`, the IC50 is above 46 µM.

In the case of `COC(=O)C(CN)c1c[nH]c2ccc(OC)cc12.Cl` (stereo unspecified), the IC50 was above 46 µM.

`O=C(O)c1cc(=O)c2ccccc2o1`: the 50% inhibitory concentration (IC50) was above 46 µM.

Consider `NC(=O)OCC(COC(N)=O)c1ccccc1`, for which the IC50 is above 46 µM.

With `CCC1(CC)C(=O)C=CNC1=O`, the half-maximal inhibitory concentration (IC50) is above 46 µM.

`CCOc1ccccc1OCCN[C@H](C)Cc1ccc(OC)c(S(N)(=O)=O)c1.Cl` gave an IC50 above 46 µM.

As for `O=[C@@](OCC)[C@@H](N[C@@H](C)C(N2C(N(C)C[C@H]2[C@](O)=O)=O)=O)CCC1=CC=CC=C1.Cl`, the IC50 is above 46 µM.

`O=C([C@H](C)CS)N(CCC1)[C@@H]1[C@@](O)=O` registered an IC50 above 46 µM.

On to `[O-][C@@]([C@@]13[C@@]([C@]2([H])OC(C)(C)OC[C@@]([H])2O3)([H])OC(C)(C)O1)=O.[Na+]`, for which the IC50 was above 46 µM.

Consider `NS(=O)(=O)Cc1noc2ccccc12`, for which the IC50 is above 46 µM.

Turning to `Cl.N=C(N)n1cccn1`, the IC50 was above 46 µM.

As for `CCN(CC)CCOC(=O)C(C)(c1ccccc1)c1ccccc1`, the IC50 is above 46 µM.

Compound `CC(NC(C)(C)C)C(=O)c1cccc(Cl)c1.Cl` (stereo unspecified) returned an IC50 above 46 µM.

Regarding `CCN(CC)C(=O)N[C@@H]1C=C2c3cccc4[nH]cc(c34)C[C@@H]2N(C)C1`, the IC50 is above 46 µM.

Compound `CC(C)CN(C[C@@H](OP(=O)([O-])[O-])[C@H](Cc1ccccc1)NC(=O)O[C@H]1CCOC1)S(=O)(=O)c1ccc(N)cc1.[Ca+2]` gave an IC50 above 46 µM.

`C[C@@H](CN1CC(=O)NC(=O)C1)N1CC(=O)NC(=O)C1` displayed an IC50 above 46 µM.

As for `O=C2N1[C@]([C@@]([H])2N)([H])SC(C)(C)[C@@H]1[C@@](O)=O`, the IC50 is above 46 µM.

`CNCCC(Oc1ccccc1OC)c1ccccc1` (stereo unspecified) showed an IC50 above 46 µM.

With `CC(C)NC(C)C`, the IC50 was above 46 µM.

`O=C1C(O)=C(O)C(=O)C(O)=C1O` returned an IC50 above 46 µM.

`CCN1CCc2nc(N)oc2CC1.Cl.Cl`: the IC50 is above 46 µM.

The compound `CC(C)NCC1CCc2cc(CO)c([N+](=O)[O-])cc2N1` (stereo unspecified) returned an IC50 above 46 µM.

For `CCN[C@H]1CN(CCCOC)S(=O)(=O)c2sc(S(N)(=O)=O)cc21`, the IC50 was above 46 µM.

These data come from the supplement of paper PMC3493320.
